Assay results: US20060204502A1 (priority 2004, published 2006)

Experiments:
[1] = target: T1, rat A2A Adenosine receptor (Rattus norvegicus, UniProt P30543); test: Rat A2A adenosine receptor binding, [3H]-SCH 58261, rat striatal membranes; conditions: read-out: rA2A (Ki)
T1 construct: from tissue; host or cells: rat striatum (male Wistar rats)

[2] = tested on: Human Colon Carcinoma HT29; test: MTT growth inhibitory assay, HT29; format: cell-based; conditions: HT29 cells
Procedure: (§1) Interpretation of the EF is dependent upon the concentrations of A3 receptor antagonist tested. For example, when using very low concentrations of A3 receptor antagonist, any EF above 1.0 is synergistic if the A3 receptor antagonist concentration is below the threshold of cell growth inhibition.
(§2) The cells are sub-cultured twice a week.
(§3) Vinblastine sulfate salt was obtained from Sigma Chemical Co., (V1377). Irinotecan was diluted with culture medium. All other agents were dissolved in 100% DMSO at appropriate concentrations. The DMSO stock solutions were diluted 100-fold with growth medium so that the final DMSO concentration was 1%.

[3] = tested on: Human Pancreatic Cancer Panc-1; test: MTT growth inhibitory assay, Panc-1; format: cell-based; conditions: Panc-1 cells, A3 antagonist at 0.5 μg/ml
Procedure: as §1, §2, §3

[4] = tested on: Human Lung Carcinoma SKMES; test: MTT growth inhibitory assay, SKMES; format: cell-based; conditions: SKMES cells, A3 antagonist at 0.5 μg/ml
Procedure: as §1, §2, §3

[5] = target: T2, rat A1 Adenosine receptor (Rattus norvegicus, UniProt P25099); test: Rat A1 adenosine receptor binding, [3H]-DPCPX, rat brain membranes; conditions: read-out: rA1 (Ki)
T2 construct: from tissue; host or cells: whole brain (minus brainstem, striatum and cerebellum) of male Wistar rats
T2 sequence (P25099 1-326): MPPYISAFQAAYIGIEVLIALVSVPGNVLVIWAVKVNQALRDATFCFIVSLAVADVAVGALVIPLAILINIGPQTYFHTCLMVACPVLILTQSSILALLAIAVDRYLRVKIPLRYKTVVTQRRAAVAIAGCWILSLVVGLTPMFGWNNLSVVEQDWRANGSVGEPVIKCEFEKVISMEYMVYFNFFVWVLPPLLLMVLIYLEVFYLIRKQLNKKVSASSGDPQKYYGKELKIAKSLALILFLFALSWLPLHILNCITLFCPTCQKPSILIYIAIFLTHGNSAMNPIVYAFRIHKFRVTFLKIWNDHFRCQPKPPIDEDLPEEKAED
Procedure: Membrane preparations: Male Wistar rats (200-250 g) can be decapitated and the whole brain (minug brainstem, striatum and cerebellum) dissected on ice. The brain tissues can be disrupted in a Polytron (setting 5) in 20 vols of 50 mM Tris HCl, pH 7.4. […] After 30 min incubation at 37° C., the membranes can be centrifuged and the pellets stored at −70° C. Striatal tissues can be homogenized with a Polytron in 25 vol of 50 mM Tris HCl buffer containing 10 mM MgCl2 pH 7.4. […] After 30 min incubation at 37° C., membranes can be centrifuged and the pellet stored at −70° C. […] Incubation times are typically 120 min at 25° C.
Radioligand binding assays may comprise the following: Binding of [^3H]-SCH 58261 (5-amino-7-(2-phenylethyl)-2-(2-furyl)-pyrazolo[4,3-e]-1,2,4-triazolo[1,5-c]pyrimidine) to rat striatal membranes (100 ug of protein/assay) can be performed according to methods described in Zocchi et al., 1996, J. Pharm. and Exper. […] In competition studies, at least 6-8 different concentrations of examined compounds should be used. […] Incubation time is typically 60 min at 25° C. Bound and free radioactivity can be separated by filtering the assay mixture through Whatman GF/B glass-fiber filters using a Brandel cell harvester (Gaithersburg, Md., USA). […] The filter bound radioactivity can be measured, for example, by liquid scintillation spectrometry. […]

[6] = tested on: Human Melanoma A375; test: MTT growth inhibitory assay, A375; conditions: A375 cells
Procedure: An exemplary assay may comprise the following steps: Cells (1000-1500 cells/well) are seeded in a 96-well micro culture plate in a total volume of 100 μl/well. After overnight incubation in a humidified incubator at 37° C. with 5% CO2-95% air, chemotherapeutic drug solutions diluted with culture medium at various concentrations are added in the amount of 100 μl to each well. The plates are placed in a humidified incubator at 37° C. with 5% CO2-95% air for 7-10 days. The plates are then centrifuged briefly and 100 μl of the growth medium is removed. Cell cultures are incubated with 50 μl of MTT [3-(4,5-dimethylthiazol-2-yl)-2,5-diphenyl-tetrazolium bromide] reagent (1 mg/ml in Dulbecco's phosphate-buffered saline) for 4 hr at 37° C. The resultant purple formazan precipitate is solubilized with 200 μl of 0.04 N HCl in isopropanol. Absorbance is measured at a wavelength of 595 nm and at a reference wavelength of 655 nm using a Bio-Rad Model 3550 Microplate Reader. Preferably, all tests are run in duplicate for each dose level. […] The EZED50 computer program estimates the concentration of agent that inhibits cell growth by 50% as compared to the control cells. This is termed the IC50 and is determined by curve fitting test data using the following four logistic equation. [formula]
If testing concentrations are properly selected (i.e., no or little growth inhibition at low concentrations and complete inhibition at high concentrations), EZED50 program fits the data extremely well and estimates the IC50 value accurately. […] In these instances, the data could be re-analyzed by fixing the Amax value.
In this case, the IC50 could be estimated more accurately if both the Amax and Amin values are fixed. Although it may be feasible to estimate IC50 value by fixing Amax and/or Amax and Amin without repeating the experiment, the best way to determine the IC50 accurately is to decrease or increase the concentrations of the test agent and repeat the test.
Inhibitory assay testing is also used to determine enhanced therapeutic effects from combining A3 receptor antagonists with other tumor inhibiting agents. The inhibitory cell growth assays are run with and without selected concentrations of A3 receptor antagonists. An enhanced therapeutic effect is present when the IC50 of the tumor inhibiting agent is lower with the A3 receptor antagonist.
Quantitatively, the enhancement factor (EF) is calculated by dividing the IC50 value of the tumor inhibiting agent for a tumor cell line by the IC50 value of the agent with A3 receptor antagonist for the same cell line: [formula]
The cells are cultured in a T25 Falcon Tissue Culture flask in a humidified incubator at 37° C. with 5% CO2-95% air. The cells are sub-cultured twice a week.

[7] = enhancement of paclitaxel IC50, A3 antagonist at 0.5 μg/ml

T1 sequence (P30543 whole entry): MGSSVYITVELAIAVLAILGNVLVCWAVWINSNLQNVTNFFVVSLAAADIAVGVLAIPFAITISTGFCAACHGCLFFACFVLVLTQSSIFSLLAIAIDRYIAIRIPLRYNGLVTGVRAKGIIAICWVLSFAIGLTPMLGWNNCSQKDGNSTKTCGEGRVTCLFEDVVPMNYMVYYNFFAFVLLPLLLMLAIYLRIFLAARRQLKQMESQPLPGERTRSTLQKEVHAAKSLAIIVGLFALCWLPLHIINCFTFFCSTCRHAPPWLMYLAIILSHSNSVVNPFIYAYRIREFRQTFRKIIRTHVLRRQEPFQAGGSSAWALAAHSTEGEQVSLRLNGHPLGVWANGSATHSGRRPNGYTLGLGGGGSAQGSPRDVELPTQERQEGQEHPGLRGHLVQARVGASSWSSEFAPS

For `CN(C)c1ccc(NC(=O)Nc2nc3nn(C)cc3c3nc(-c4ccco4)nn23)cc1` [IL-11, N-1-(4-dimethylamino-phenyl)-N′-5-[8-methyl-2-(2-furyl)-pyrazolo[4,3-e]1,2,4-triazolo[1,5-c]pyrimidine]-urea], the Ki [1] was > 10 µM, the “Enhancement Factor” value ([2]; enhancement of docetaxel IC50, A3 antagonist at 0.05 μg/ml) was 6.4 and the “Enhancement Factor” value ([2]; enhancement of doxorubicin IC50, A3 antagonist at 0.5 μg/ml) was 1.2. For the same compound, the “Enhancement Factor” value ([2]; enhancement of irinotecan IC50, A3 antagonist at 0.5 μg/ml) was 1.1, the “Enhancement Factor” value [2, 7] was 2.5 and the “Enhancement Factor” value ([3]; enhancement of docetaxel IC50) was 1.4. For the same compound, the “Enhancement Factor” value ([3]; enhancement of paclitaxel IC50) was 1.8, the “Enhancement Factor” value ([4]; enhancement of docetaxel IC50) was 1.9 and the “Enhancement Factor” value ([4]; enhancement of irinotecan HCL IC50) was 1.9. For the same compound, the “Enhancement Factor” value ([4]; enhancement of paclitaxel IC50) was 4.2, the “Enhancement Factor” value ([4]; enhancement of vinblastine IC50) was 1.6 and the Ki [5] was > 10 µM. For the same compound, the “Enhancement Factor” value ([6]; enhancement of docetaxel IC50, A3 antagonist at 0.5 μg/ml) was 5.3, the “Enhancement Factor” value ([6]; enhancement of docetaxel IC50, A3 antagonist at 5 μg/ml) was 6.5 and the “Enhancement Factor” value [6, 7] was 3.1. For the same compound, the “Enhancement Factor” value ([6]; enhancement of paclitaxel IC50, A3 antagonist at 5 μg/ml) was 9.6.
